Experimental data as given in patent US10766890B2, “Hepatitis B core protein modulators” (Assembly Biosciences, Inc., priority 2015, dated 2020).

Legend:
[1] = test system: HBV; assay: Viral load production in AD38 cells, quantitative PCR of the core sequence in supernatant; type: cell-based; conditions: 10 μM compound, 6 days at 37° C., supernatant qPCR vs DMSO control; for activity at 10 µM: Hepatitis B virus, 144 h, read-out: AD38 Viral Load (%) (VL with cmpd/VL in DMSO control) at 10 μM
Protocol: (§1) Example 63: Assay Measuring Activity of Compounds on Viral Production in and on Viability of AD38 Cells
(§2) AD38 cells were then re-suspended with 10 mL of Treatment Medium and counted. Wells of a collagen coated 96-well NUNC microtiter plate were seeded at 50,000/well in 180 μL of Treatment Medium, and 20 μL of in treatment media with either 10% DMSO (Control) or a 10× solution of compound in 10% DMSO was added. Plates were incubated for 6 days at 37° C.
Viral load production was assayed by quantitative PCR of the core sequence. […] The PCR mixture was incubated at 45° C. for 5 minutes, then 95° C. for 10 min, followed by 40 cycles of 10 seconds at 95° C. and 20 seconds at 60° C. Viral load was quantitated against known standards by using ViiA™ 7 Software. Viral load in the supernatant from wells with treated cells were compared against viral load in supernatant from DMSO control wells (≥3 per plate).

[2] = test system: AD38 cells; assay: Viability of AD38 cells, Promega CellTiter-Glo; type: cell-based; conditions: 10 μM compound, 6 days, CellTiter-Glo luminescence, controls being 100%
Protocol: as §1, §2
At the end of compound treatment period cell viability was assessed using a Promega CellTiter-Glo protocol. All supernatant was removed the previously treated 96-well microtiter plate, and 50 μL Tetracycline-free treatment medium (DMEM/F12 (1:1), 1×Pen/step (cat#: 30-002-CL, Mediatech, Inc), with 2% FBS, Tet-system approved (cat#: 631106, Clontech), and 1% DMSO was added back to each well. Another 50 μL of CellTiter-Glo reagent solution (Promega, G7573) was then added at room temperature and the contents mixed for 2 minutes on an orbital shaker to induce cell lysis. This was followed by incubation at room temperature for 10 minutes to stabilize the luminescent signal. The luminescence was recorded for 0.2 seconds per well on a Tecan multimode platereader (Infinite M1000 pro). The luminescent signal from each well was normalized against that of untreated (DMSO) control wells. All results in Table 3 were reported with percent viability (with controls being 100%).

Row | Structure (SMILES) | activity at 10 µM [1] [%] | AD38 Viability Normalized Result (cmpd/DMSO %) at 10 μM [2] [%] | AD38 Viral Load (%) (VL with cmpd/VL in DMSO control) at 10 μM [1]
1 | O=C(NCc1cccc(-c2ccc(F)cc2)c1)c1ccc2c(c1)NC(=O)c1ccccc1S2(=O)=O [Compound 566] | 0.6 | 95 | 
2 | O=C(NCc1ccc(-n2nccn2)cc1)c1ccc2c(c1)NC(=O)c1ccccc1S2(=O)=O [Compound 567] | 3.3 | 104 | 
3 | O=C(NCc1cccc(-n2nccn2)c1)c1ccc2c(c1)NC(=O)c1ccccc1S2(=O)=O [Compound 568] | 3 | 101 | 
4 | O=C(NCc1ccc(-c2cn(Cc3ccccc3)nn2)cc1)c1ccc2c(c1)NC(=O)c1ccccc1S2(=O)=O [Compound 569-A] | 1.5 | 97 | 
5 | O=C(NCc1ccc(-c2c[nH]nn2)cc1)c1ccc2c(c1)NC(=O)c1ccccc1S2(=O)=O [Compound 569] | 2.8 | 100 | 
6 | O=C(NCc1cccc(-c2cnn[nH]2)c1)c1ccc2c(c1)NC(=O)c1ccccc1S2(=O)=O [Compound 570] | 8.7 | 112 | 
7 | O=C(NCc1ccc(-c2ccc(O)cc2)cc1)c1ccc2c(c1)NC(=O)c1ccccc1S2(=O)=O [Compound 638] | 8.6 | 7 | 
8 | O=C(NCc1ccc(-c2cccc(O)c2)cc1)c1ccc2c(c1)NC(=O)c1ccccc1S2(=O)=O [Compound 639] | 4.5 | 34 | 
9 | C[C@H](NC(=O)c1ccc2c(c1)NC(=O)c1ccccc1S2(=O)=O)c1ccc(-c2ccc(O)cc2)cc1 [Compound 640] | 4.4 | 1 | 
10 | C[C@@H](NC(=O)c1ccc2c(c1)NC(=O)c1ccccc1S2(=O)=O)c1ccc(-c2ccc(O)cc2)cc1 [Compound 643] | 30 | 104 | 
11 | O=C(NCc1ccc(-c2ccc3[nH]cnc3c2)cc1)c1ccc2c(c1)NC(=O)c1ccccc1S2(=O)=O [Compound 644] | 31.2 | 89 | 
12 | CN(C)c1ccc(-c2ccc(CNC(=O)c3ccc4c(c3)NC(=O)c3ccccc3S4(=O)=O)cc2)cc1 [Compound 646] | 6 | 92 | 
13 | O=C(NCc1ccc(-c2ccc3[nH]ccc3c2)cc1)c1ccc2c(c1)NC(=O)c1ccccc1S2(=O)=O [Compound 647] | 0.4 | 102 | 
14 | Cl.NCc1ccc(-c2ccc(CNC(=O)c3ccc4c(c3)NC(=O)c3ccccc3S4(=O)=O)cc2)cc1 [Compound 652, N-((4′-(aminomethyl)-[1,1′-biphenyl]-4-yl)methyl)-11-oxo-10,11-dihydrodibenzo[b,f][1,4]thiazepine-8-carboxamide 5,5-dioxide hydrochloride] | 36.4 | 86 | 
15 | N#Cc1ccc(-c2ccc(CNC(=O)c3ccc4c(c3)NC(=O)c3ccccc3S4(=O)=O)cc2)cc1 [Compound 652-A, N-((4′-cyano-[1,1′-biphenyl]-4-yl)methyl)-11-oxo-10,11-dihydrodibenzo[b,f][1,4]thiazepine-8-carboxamide 5,5-dioxide] | 4.6 | 36 | 
16 | CN(C)CCOc1ccc(-c2ccc(CNC(=O)c3ccc4c(c3)NC(=O)c3ccccc3S4(=O)=O)cc2)cc1 [Compound 657] | 19.4 | 104 | 
17 | CN(Cc1ccc(-c2ccc(O)cc2)cc1)C(=O)c1ccc2c(c1)NC(=O)c1ccccc1S2(=O)=O [Compound 662] | 20.8 | 34 | 
18 | N#Cc1cccc(-c2ccc(CNC(=O)c3ccc4c(c3)NC(=O)c3ccccc3S4(=O)=O)cc2)c1 [Compound 676-A] | 5.9 | 98 | 

Row | Structure (SMILES) | activity at 10 µM [1] [%] | AD38 Viability Normalized Result (cmpd/DMSO %) at 10 μM [2] [%] | AD38 Viral Load (%) (VL with cmpd/VL in DMSO control) at 10 μM [1]
19 | O=C(NCc1ccc(-c2ccc3[nH]ncc3c2)cc1)c1ccc2c(c1)NC(=O)c1ccccc1S2(=O)=O [Compound 678] | 1.4 | 76 | 
20 | CN(C)CCOc1cccc(-c2ccc(CNC(=O)c3ccc4c(c3)NC(=O)c3ccccc3O4)cc2)c1 [Compound 717] | 170 | 0 | 
21 | O=C(NCc1ccc(-c2ccc(O)cc2)cc1)c1ccc2c(c1)NC(=O)c1ccccc1O2 [Compound 719] | 4.6 | 110 | 
22 | O=C(NCc1ccc(-c2cccc(O)c2)cc1)c1ccc2c(c1)NC(=O)c1ccccc1O2 [Compound 720] | 48.5 | 102 | 
23 | O=C(NCc1ccc(-c2ccc(O)cc2)c(Cl)c1)c1ccc2c(c1)NC(=O)c1ccccc1O2 [Compound 721] | 9.7 | 29 | 
24 | O=C(NCc1ccc(-c2ccc(O)cc2Cl)cc1)c1ccc2c(c1)NC(=O)c1ccccc1O2 [Compound 722] | 8.8 | 29 | 
25 | NCc1ccc(-c2ccc(CNC(=O)c3ccc4c(c3)NC(=O)c3ccccc3O4)cc2)cc1 [Compound 726] |  | 1 | 6.1
26 | N#Cc1cccc(-c2ccc(CNC(=O)c3ccc4c(c3)NC(=O)c3ccccc3O4)cc2)c1 [Compound 728-A] | 66.8 | 120 | 
27 | O=C(NCc1ccc(-c2ccc3[nH]cnc3c2)cc1)c1ccc2c(c1)NC(=O)c1ccccc1O2 [Compound 729] | 16.3 | 97 | 
28 | O=C(NCc1ccc(-c2ccc3[nH]ccc3c2)cc1)c1ccc2c(c1)NC(=O)c1ccccc1O2 [Compound 730] | 24.2 | 101 | 
29 | O=C(NCc1cccc(Cc2cccc(O)c2)c1)c1ccc2c(c1)NC(=O)c1ccccc1O2 [Compound 740] | 23.8 | 103 | 
30 | O=C(NCc1cccc(Cc2ccc(O)cc2)c1)c1ccc2c(c1)NC(=O)c1ccccc1O2 [Compound 741, N-(3-(4-hydroxybenzyl)benzyl)-11-oxo-10,11-dihydrodibenzo[b,f][1,4]oxazepine-8-carboxamide] | 40.1 | 111 | 
31 | COc1ccc(Cc2cccc(CNC(=O)c3ccc4c(c3)NC(=O)c3ccccc3O4)c2)cc1 [Compound 741-A] | 42.4 | 89 | 
32 | O=C(NCc1cccc(Sc2cccc(O)c2)c1)c1ccc2c(c1)NC(=O)c1ccccc1O2 [Compound 742, N-(3-((3-hydroxyphenyl)thio)benzyl)-11-oxo-10,11-dihydrodibenzo[b,f][1,4]oxazepine-8-carboxamide] | 12.7 | 89 | 
33 | COc1cccc(Sc2cccc(CNC(=O)c3ccc4c(c3)NC(=O)c3ccccc3O4)c2)c1 [Compound 742-A, N-(3-((3-methoxyphenyl)thio)benzyl)-11-oxo-10,11-dihydrodibenzo[b,f][1,4]oxazepine-8-carboxamide] | 2.6 | 107 | 
34 | O=C(NCc1cccc(Sc2ccc(O)cc2)c1)c1ccc2c(c1)NC(=O)c1ccccc1O2 [Compound 743, N-(3-((4-hydroxyphenyl)thio)benzyl)-11-oxo-10,11-dihydrodibenzo[b,f][1,4]oxazepine-8-carboxamide] | 6.8 | 102 | 
35 | COc1ccc(Sc2cccc(CNC(=O)c3ccc4c(c3)NC(=O)c3ccccc3O4)c2)cc1 [Compound 743-A] | 22.7 | 91 | 
